The text below walks through data of BindingDB's records for doi:10.1016/j.bmcl.2009.09.123 (Genomics Institute of The Novartis Research Foundation, 2009).

Experiment [1] can be described thus: Inhibition of Tel-fused KDR expressed in mouse BAF3 cells.
Experiment [2] in a line: Inhibition of Tel-fused LCK expressed in mouse BAF3 cells.
A short description of experiment [3]: Inhibition of Tel-fused LYN expressed in mouse BAF3 cells.
Experiment [4] in a line: Inhibition of Tel-fused SRC expressed in mouse BAF3 cells.

Consider `Cc1ccc(NC(=O)c2cccc(C(F)(F)F)c2)cc1Nc1nc2ccccc2n1-c1cc(N)ncn1` [N-(3-(1-(6-aminopyrimidin-4-yl)-1H-benzo[d]imidazol-2-ylamino)-4-methylphenyl)-3-(trifluoromethyl)benzamide], for which the IC50 in experiment [1] was 36 nM; in experiment [2], 7 nM; in experiment [3], 14 nM; in experiment [4], 78 nM.

For the compound `Cc1ccc(NC(=O)c2cc(C(C)(C)C)nn2C)cc1Nc1nc2ccccc2n1-c1cc(N)ncn1` [N-(3-(1-(6-aminopyrimidin-4-yl)-1H-benzo[d]imidazol-2-ylamino)-4-methylphenyl)-3-tert-butyl-1-methyl-1H-pyrazole-5-carboxamide], the IC50 in experiment [1] came out at 451 nM; in experiment [2] it was 224 nM; in experiment [4], 959 nM.

As to `Cc1ccc(NC(=O)c2ccncc2Cl)cc1Nc1nc2ccccc2n1-c1cc(N)ncn1` [N-(3-(1-(6-aminopyrimidin-4-yl)-1H-benzo[d]imidazol-2-ylamino)-4-methylphenyl)-3-chloroisonicotinamide], the results for the IC50 in experiment [2], in experiment [3] and in experiment [4] were 890 nM, 595 nM and more than 10000 nM, respectively.

For the compound `Cc1ccc(NC(=O)c2cccc(C(F)(F)F)c2)cc1Nc1nc2ccccc2n1-c1cc(Cl)ncn1` [N-(3-(1-(6-chloropyrimidin-4-yl)-1H-benzo[d]imidazol-2-ylamino)-4-methylphenyl)-3-(trifluoromethyl)benzamide], the IC50 in experiment [1] was 9070 nM; in experiment [2], 2700 nM; in experiment [3], 3300 nM.

As for `Cc1ccc(NC(=O)c2cccc(C(F)(F)F)c2)cc1Nc1nc2ccccc2n1-c1cc(NCCC2CCCN2)ncn1` (centres undefined) [N-(4-methyl-3-(1-(6-(2-(pyrrolidin-2-yl)ethylamino)pyrimidin-4-yl)-1H-benzo[d]imidazol-2-ylamino)phenyl)-3-(trifluoromethyl)benzamide], the IC50 in experiment [1] amounted to 941 nM; in experiment [2], 238 nM; in experiment [4], 903 nM.

For the compound `COCCNc1cc(-n2c(Nc3cc(NC(=O)c4cccc(C(F)(F)F)c4)ccc3C)nc3ccccc32)ncn1` [N-(3-(1-(6-(2-methoxyethylamino)pyrimidin-4-yl)-1H-benzo[d]imidazol-2-ylamino)-4-methylphenyl)-3-(trifluoromethyl)benzamide], the half-inhibitory concentration (IC50) was determined as 296 nM in experiment [1], 126 nM in experiment [3] and 606 nM in experiment [4].

Turning to `Cc1ccc(NC(=O)c2ccncc2C(C)(C)C)cc1Nc1nc2ccccc2n1-c1cc(N)ncn1` [N-(3-(1-(6-aminopyrimidin-4-yl)-1H-benzo[d]imidazol-2-ylamino)-4-methylphenyl)-3-tert-butylisonicotinamide], the IC50 in experiment [4] stood at 56 nM.

`Cc1ccc(NC(=O)c2cccc(Cl)c2)cc1Nc1nc2ccccc2n1-c1cc(N)ncn1` [N-(3-(1-(6-aminopyrimidin-4-yl)-1H-benzo[d]imidazol-2-ylamino)-4-methylphenyl)-3-chlorobenzamide]: the values for the concentration for half-maximal inhibition (IC50) in experiment [1], in experiment [2] and in experiment [4] were 576 nM, 84 nM and 650 nM, respectively.

With `CCN(CC)CCCCNc1cc(-n2c(Nc3cc(NC(=O)c4cccc(C(F)(F)F)c4)ccc3C)nc3ccccc32)ncn1` [N-(3-(1-(6-(4-(diethylamino)butylamino)pyrimidin-4-yl)-1H-benzo[d]imidazol-2-ylamino)-4-methylphenyl)-3-(trifluoromethyl)benzamide], the IC50 in experiment [1] was 885 nM; in experiment [2], 41 nM; in experiment [3], 217 nM.

Turning to `CCN(CC)CCCCNc1cc(-n2c(Nc3cc(C(=O)Nc4cccc(C(F)(F)F)c4)ccc3C)nc3ccccc32)ncn1` [3-(1-(6-(4-(diethylamino)butylamino)pyrimidin-4-yl)-1H-benzo[d]imidazol-2-ylamino)-4-methyl-N-(3-(trifluoromethyl)phenyl)benzamide], the IC50 in experiment [1] is 243 nM; in experiment [2], 52 nM; in experiment [3], 140 nM.

The term IC50 denotes the concentration that gives 50% inhibition. Higher therefore signals lower potency.
